Patent publication US20090257999A1, “Method of preventing contrast-induced nephropathy” (Inotek Pharmaceuticals Corporation, priority 2007, published 2009)

How the values were obtained:
Type in all cases: in vivo, rat
diabetic rats [1] = test: CIN animal model, Example 1: plasma urea and creatinine (glomerular dysfunction)
Procedure: Male Wistar rats (150-200 g; Harlan Nossanr) were housed in a controlled environment and provided with standard rodent chow and water.
After 12 hours of fasting, the animals received a single 60 mg/kg intravenous (i.v.) injection of streptozotocin (Sigma, St. Louis, Mo.) in 10 mM sodium citrate buffer, pH 4.5 (see figure showing CIN model). Control non-diabetic animals were fasted and received citrate buffer alone. After 24 hours, animals with blood glucose levels greater than 250 mg/dl were considered diabetic. All experiments were performed 10 days following the induction of diabetes. The diabetic state was evaluated daily by determination of the blood glucose levels. Upon the induction of the diabetic state the animals were presenting with a major risk factor pre-disposing the animals to CIN after the administration of contrast media.
Ten days following the induction of diabetes the rats were anesthetized with 90 mg/kg ketamine i.m. and 10 mg/kg xylazine i.m. and were treated with the contrast agent iomeprol (10 mL/kg injected via the lateral tail vein) or with 0.9% normal saline. The contrast agent used was the low osmolar non-ionic monomer iomeprol (Iomeron, 400 mgI mL-1; Bracco SpA, Milan, Italy) with an osmolality of 726±34 mosmol/kg H2O. Upon completion of surgical procedures, the animals were randomly allocated to eleven different experimental groups as tabulated below:
(§1) Experimental model for assessing the effects of Metalloporphyrin A on CIN: Diabetic (n=8) for group #'s 1-9 or wild-type rats (n=10) for group #'s 10 and 11 were treated with drug 60 min prior to contrast agent administration. At the “0” time point, Iomeprol was administered with ensuing drug intervention dosing every 12 hours for Metalloporphyrin A from 24-84 hours or every 24 hours for NAC from 24-72 hours. At the 96 hour time point, kidneys were harvested for histopathology, MPO and MDA measurements. From 0-96 hours, plasma samples from all animals per group were screened for urea, creatinine, fractional excretion of Na^+ and NGAL.
At the indicated time point blood samples were collected via the lateral tail vein into S1/3 tubes containing serum gel. The samples were centrifuged (6000 r.p.m. for 3 min) to separate plasma. All plasma samples were analyzed for biochemical parameters within 24 hours of collection. Plasma concentrations of urea and creatinine were measured as indicators of impaired glomerular function. Urine samples were collected at 96 hour after contrast agent administration and the volume of urine produced was recorded. Urine concentrations of Na^+ were measured and were used in conjunction with plasma Na^+ concentrations to calculate fractional excretion of Na^+ (FENa) using standard formulae, which was used as an indicator of tubular function.

[2] = system: malondialdehyde (MDA) in kidneys; test: Kidney malondialdehyde (MDA) levels, Example 1; conditions: at 96 hours
Procedure: as §1
Levels of malondialdehyde (MDA) in kidneys were determined as an indicator of lipid peroxidation following a protocol described previously (Davenport et. al. Clin. Transplant. 9 (3 Pt 1):171-51995).
Kidney tissue was weighed and homogenized in a 1.15% (wt/vol) KCl solution. A […] aliquot of homogenate was then removed and added to a reaction mixture containing […] 8.1% (wt/vol) lauryl sulfate, 1.5 mL 20% (vol/vol) acetic acid (pH 3.5), 1.5 mL 0.8% (wt/vol) thiobarbituric acid, and 700 mL distilled water. Samples were then boiled for one hour at 95° C. and centrifuged at 3000 g for 10 minutes. The absorbance of the supernatant was measured spectrophotometrically at […]. MDA levels were expressed as μM/100 mg wet tissue.

diabetic rats [3] = test: CIN model, Example 5: INO-1001 alone and with NAC in diabetic rats; conditions: diabetic rats + Iomeprol, NAC 30 mg/kg i.v., INO-1001 10 mg/kg ip, or both, at −30 min
Procedure: Male Wistar rats (150-200 g; Harlan Nossanr) were housed in a controlled environment and provided with standard rodent chow and water. Diabetes was induced after 12 h of fasting. The animals received a single 60 mg/kg intravenous (i.v.) injection of streptozotocin (Sigma, St. Louis, Mo.) in 10 mM sodium citrate buffer, pH 4.5 (see figure). Control non-diabetic animals were fasted and received citrate buffer alone. After 24 hours, animals with blood glucose levels greater than 250 mg/dl were considered diabetic. The diabetic state was confirmed by evaluating the blood glucose levels. Ten days following the induction of diabetes rats were anesthetized with 90 mg/kg ketamine i.m. and 10 mg/kg xylazine i.m. and were treated with the contrast agent iomeprol (10 mL/kg injected via the lateral tail vein) or with 0.9% normal saline. The contrast agent used was the low osmolar non-ionic monomer iomeprol (Iomeron, 400 mgI mL-1; Bracco SpA, Milan, Italy) with an osmolality of 726±34 mosmol/kg H2O.
GROUP 1: Diabetic rats only+Placebo (i.v.). GROUP 2: Diabetic rats+Iomeprol+Placebo (i.v.) given at −30 min. GROUP 3: Diabetic rats+Iomeprol+NAC (30 mg/kg, i.v.) given at −30 min. GROUP 4: Diabetic rats+Iomeprol+INO-1001 (10 mg/kg, ip) given at −30 min. GROUP 5: Diabetic rats+Iomeprol+NAC (30 mg/kg, i.v.)+INO-1001 (10 mg/kg, ip) given at −30 min.
Blood samples were collected via the lateral tail vein into S1/3 tubes containing serum gel at 24 hours. The samples were centrifuged (6000 r.p.m. for 3 min) to separate plasma. All plasma samples were analyzed for biochemical parameters within 24 hours after collection. Plasma and urine concentrations of creatinine were measured as indicators of impaired glomerular function. Creatinine clearance was calculated using the following formula (=UV/P), where U refers to Creatinine concentration in urine, V to urine volume/min and P to serum creatinine. Plasma and urine concentrations of NGAL (neutrophil gelatinase associated lipocalin) levels and urine αGST (alpha glutathione S-transferase) and NGAL levels were evaluated.
Protein concentration in urine was determined by Bio-Rad DC Protein Assay (BioRad, Richmond Calif.). The Bio-Rad DC protein assay is a colorimetric assay for protein concentration. The reaction is similar to the well-documented Lowry assay (Lowry et al., Protein measurement with the Folin phenol reagent, J Biol Chem 193, 265-275 (1951). The Bio-Rad DC protein assay requires only a single 15-minute incubation, and absorbance is stable for a least 2 hours. The amount of protein is expressed in mg/ml.

[4] = diabetic rats + i.v. Iomeprol 10 ml/kg, Metalloporphyrin A 1000 μg/kg or NAC 10 mg/kg i.p., at 48, 72 and 96 hours
[5] = diabetic rats + i.v. saline (no contrast agent), NAC 10 mg/kg i.p., at 72 and 96 hours

CC(=O)N[C@@H](CS)C(=O)O [NAC, N-acetylcysteine]
reductions: plasma creatinine concentration (diabetic rats [1]; [4]) | plasma urea concentration (diabetic rats [1]; [4])
significant reductions: MDA levels in the kidney ([2]; diabetic rats + i.v. Iomeprol, Metalloporphyrin A 30-1000 μg/kg or NAC 10 mg/kg i.p.) | plasma creatinine (diabetic rats [3]; 24 h) | plasma NGAL concentration (diabetic rats [3]; 24 hours) | total protein concentration in the urine (diabetic rats [3]; 24 hours) | urine NGAL concentration (diabetic rats [3]; 24 hours) | urine αGST (diabetic rats [3]; 24 hours)
significantly reduced the increase: plasma creatinine concentration (diabetic rats [1]; [5]) | plasma urea concentration (diabetic rats [1]; [5]) | MDA levels in the kidney ([2]; diabetic rats + i.v. saline (no contrast agent), Metalloporphyrin A 1000 μg/kg or NAC 10 mg/kg i.p.)
